In ChEMBL document CHEMBL1275444, “Fitness trade-offs in blaTEM evolution” (2008) one finds MIC, inhibition and Activity data, which are given here for two compounds.

Converted amounts (≈) assume the structure as drawn.

In assay [1] the test system is Escherichia coli. Nature of the assay: Antibacterial activity against Escherichia coli TP1 harboring pBR322 carrying TEM-12 by broth microdilution method. It counts as functional. A general note: In broth dilution the organism is exposed to a series of concentrations in liquid medium.
In assay [2] the test system is Escherichia coli. The assay is described as follows: Antibacterial activity against Escherichia coli TP1 harboring pBR322 carrying TEM-1 assessed as inhibition of bacterial growth at 2 ug/ml after 18 hrs. It counts as functional. The conditions noted are these: TP1, 18 h.
Assay [3] relates to Escherichia coli. Nature of the assay: Antibacterial activity against Escherichia coli TP1 harboring pBR322 carrying TEM-10 assessed as bacterial density up to 64 ug/ml after 18 hrs. The format is functional.
For assay [4], the system named is Escherichia coli. Nature of the assay: Antibacterial activity against Escherichia coli TP1 harboring pBR322 carrying TEM-10 assessed as inhibition of bacterial growth at 256 ug/ml after 18 hrs. It counts as functional. The conditions noted are these: TP1, 18 h.
The subject of assay [5] is Escherichia coli. Nature of the assay: Antibacterial activity against Escherichia coli TP1 harboring pBR322 carrying TEM-12 assessed as inhibition of bacterial growth at 64 ug/ml after 18 hrs. The format is functional. The conditions noted are these: TP1, 18 h.
In assay [6] the test system is Escherichia coli. The assay is described as follows: Antibacterial activity against Escherichia coli TP1 harboring pBR322 carrying TEM-12 assessed as inhibition of bacterial growth at 256 ug/ml after 18 hrs. It counts as functional. The conditions noted are these: TP1, 18 h.
In assay [7] the test system is Escherichia coli. The assay is described as follows: Antibacterial activity against Escherichia coli TP1 by broth microdilution method.
Assay [8] deals with Escherichia coli. Nature of the assay: Antibacterial activity against Escherichia coli TP1 harboring pBR322 carrying TEM-1 by broth microdilution method. The format is functional.
The test system of assay [9] is Escherichia coli. The assay is described as follows: Antibacterial activity against Escherichia coli TP1 harboring pBR322 carrying TEM-10 by broth microdilution method. It counts as functional.
The test system of assay [10] is Escherichia coli. The assay is described as follows: Antibacterial activity against Escherichia coli TP1 harboring pBR322 carrying TEM-1 assessed as bacterial density at 512 ug/ml after 18 hrs. It counts as functional.
Assay [11] has as its system Escherichia coli. Nature of the assay: Antibacterial activity against Escherichia coli TP1 harboring pBR322 carrying TEM-10 assessed as bacterial density at 512 ug/ml after 18 hrs. The format is functional.
The test system of assay [12] is Escherichia coli. Nature of the assay: Antibacterial activity against Escherichia coli TP1 harboring pBR322 carrying TEM-12 assessed as bacterial density at 512 ug/ml after 18 hrs. The format is functional.
Assay [13] concerns Escherichia coli. The assay is described as follows: Antibacterial activity against Escherichia coli TP1 harboring pBR322 carrying TEM-1 assessed as bacterial density at 1024 ug/ml after 18 hrs. It counts as functional.
For assay [14], the system named is Escherichia coli. The assay is described as follows: Antibacterial activity against Escherichia coli TP1 harboring pBR322 carrying TEM-10 assessed as bacterial density at 1024 ug/ml after 18 hrs. The format is functional.
Assay [15] concerns Escherichia coli. Nature of the assay: Antibacterial activity against Escherichia coli TP1 harboring pBR322 carrying TEM-12 assessed as bacterial density at 1024 ug/ml after 18 hrs. The format is functional.
Assay [16] relates to Escherichia coli. Nature of the assay: Antibacterial activity against Escherichia coli TP1 harboring pBR322 carrying TEM-1 assessed as bacterial density at 2048 ug/ml after 18 hrs relative to control. It counts as functional.
Assay [17] has as its system Escherichia coli. Nature of the assay: Antibacterial activity against Escherichia coli TP1 harboring pBR322 carrying TEM-10 assessed as bacterial density at 2048 ug/ml after 18 hrs relative to control. The format is functional.
In assay [18] the test system is Escherichia coli. Nature of the assay: Antibacterial activity against Escherichia coli TP1 harboring pBR322 carrying TEM-12 assessed as bacterial density at 2048 ug/ml after 18 hrs relative to control. The format is functional.
The subject of assay [19] is Escherichia coli. Nature of the assay: Antibacterial activity against Escherichia coli TP1 harboring pBR322 carrying TEM-1 assessed as inhibition of bacterial growth at 4096 ug/ml after 18 hrs. It counts as functional. The conditions noted are these: TP1, 18 h.
Assay [20] has as its system Escherichia coli. The assay is described as follows: Antibacterial activity against Escherichia coli TP1 harboring pBR322 carrying TEM-10 assessed as inhibition of bacterial growth at 4096 ug/ml after 18 hrs. It counts as functional. The conditions noted are these: TP1, 18 h.
Assay [21] relates to Escherichia coli. Nature of the assay: Antibacterial activity against Escherichia coli TP1 harboring pBR322 carrying TEM-12 assessed as inhibition of bacterial growth at 4096 ug/ml after 18 hrs. The format is functional. The conditions noted are these: TP1, 18 h.

In general, MIC refers to the smallest concentration in the dilution series that meets the test's criterion for growth inhibition. A low value points to inhibition by little substance. Broadly, the inhibition is the percentage by which the read-out fell short of the control. In the case of `CC(C)(O/N=C(\C(=O)N[C@@H]1C(=O)N2C(C(=O)[O-])=C(C[n+]3ccccc3)CS[C@H]12)c1csc(N)n1)C(=O)O` [CEFTAZIDIME], the minimal inhibitory concentration (MIC) against Escherichia coli [1] was 512 µg/mL (≈ 937 µM); in the assay on Escherichia coli [7], 1 µg/mL (≈ 1.83 µM); against Escherichia coli [8], 8 µg/mL (≈ 14.6 µM); in the assay with Escherichia coli [9], over 1020 µg/mL. Moreover, the inhibition at 2 µg/mL in the assay on Escherichia coli [2] is 99%. For the same compound, the Activity with Escherichia coli [3] is 100%. Moreover, the inhibition at 256 µg/mL in the assay with Escherichia coli [4] came to 17%; in the assay on Escherichia coli [6], 88%. For the same compound, the inhibition at 64 µg/mL in the assay with Escherichia coli [5] amounted to 64%.
As for `CC1(C)S[C@@H]2[C@H](NC(=O)[C@H](N)c3ccccc3)C(=O)N2[C@H]1C(=O)O` [AMPICILLIN], the minimum inhibitory concentration (MIC) in the assay on Escherichia coli [1] was found to be 16400 µg/mL (≈ 46900 µM); against Escherichia coli [7], 32 µg/mL (≈ 91.6 µM); in the assay on Escherichia coli [8], 16400 µg/mL (≈ 46900 µM); in the assay on Escherichia coli [9], 16400 µg/mL (≈ 46900 µM). For the same compound, the Activity in the assay with Escherichia coli [10], in the assay on Escherichia coli [11], with Escherichia coli [12], in the assay on Escherichia coli [13], with Escherichia coli [14] and in the assay on Escherichia coli [15] was 5% in each case. Further, the Activity in the assay with Escherichia coli [16] was 95%; with Escherichia coli [17], 42%; with Escherichia coli [18], 72%. In addition, the inhibition at 4096 µg/mL amounted to 25% in the assay with Escherichia coli [19], 78% in the assay on Escherichia coli [20] and 36% in the assay with Escherichia coli [21].
